Source: patent US10821115B2, “Compounds that inhibit Mcl-1 protein” (priority 2017, dated 2020)
Read-outs that look alike come from different tables or passages of the source. Values belong to the compound of their own block, whether it stands above or below them.

Tested on: human multiple myeloma cell line, OPM-2
Assay: Cell viability assay (OPM-2 10 FBS), CellTiter-Glo
Type: cell-based
Experimental: Cell viability assay (OPM-2 10 FBS)
The human multiple myeloma cell line, OPM-2, was cultured in complete growth medium containing RPMI 1640 and 10% fetal bovine serum (FBS). Cells were seeded into 384-well plates at 3000 cells/well density in complete growth medium containing 10% FBS, and incubated for 16 h with serially diluted test compounds in a 37° C. incubator with 5% CO2. Cell viability was tested using CellTiter-Glo® assay (Promega, Madison, Wis.) according to the manufacturer recommendations. Luminescence was determined using an EnVision® Multilabel plate reader 25 min after the addition of detection reagent. IC50 values were then calculated with Xlfit using a logistical 4-parameter fit model in GraphPad Prism (GraphPad Software, San Diego, Calif.) or in Genedata Screener® (Genedata, Basel, Switzerland).

[1] = Homo sapiens, OPM-2, 16 h, read-out: OPM-2 10% FBS IC50 IP, OPM-2 cells, 10% FBS, 16 h, CellTiter-Glo
[2] = Homo sapiens, OPM-2, 16 h, read-out: OPM-2 10% FBS IC50 IP, OPM-2 cells, 10% FBS, 16 h incubation
[3] = read-out: OPM-2 10% FBS IC50 IP, OPM-2 cells, 10% FBS, 16 h incubation

Structure (SMILES): COC(=O)[C@H](NC(=O)C[C@]1(OC)/C=C/C[C@H](C)[C@@H](C)S(=O)(=O)NC(=O)c2ccc3c(c2)N(C[C@@H]2CC[C@H]21)C[C@@]1(CCCc2cc(Cl)ccc21)CO3)C(C)=O [Example 100582]
- IC50 [1]: 1120 nM

Structure (SMILES): COCCN(CCOC)C1CCN(C[C@]2(OC)/C=C/C[C@H](C)[C@@H](C)S(=O)(=O)NC(=O)c3ccc4c(c3)N(C[C@@H]3CC[C@H]32)C[C@@]2(CCCc3cc(Cl)ccc32)CO4)CC1 [Example 308, (1S,3′R,6′R,7′S,8′E,11′S,12′R)-7′-((4-(bis(2-methoxyethyl)amino)-1-piperidinyl)methyl)-6-chloro-7′-methoxy-11′,12′-dimethyl-3,4-dihydro-2H,15′H-spiro[naphthalene-1,22′-[20]oxa[13]thia[1,14]diazatetracyclo [14.7.2.0~3,6~.0~19,24~]pentacosa[8,16,18,24]tetraen]-15′-one 13′,13′-dioxide]
- IC50 [2]: 70 nM

Structure (SMILES): COCC[C@@H]1[C@@H](C)C/C=C/[C@](CN2CCN3CCOC[C@@H]3C2)(OC)[C@@H]2CC[C@H]2CN2C[C@@]3(CCCc4cc(Cl)ccc43)COc3ccc(nc32)C(=O)NS1(=O)=O [Example 20, (1 S,3′R,6′R,7′S,8′E,11′S, 12′R)-6-chloro-7′-((9aS)-hexahydropyrazino[2,1-c][1,4]oxazin-8(1H)-ylmethyl)-7′-methoxy-12′-(2-methoxyethyl)-11′-methyl-3,4-dihydro-2H,15′H-spiro[naphthalene-1,22′-[20]oxa[13]thia[1,14,25]triazatetracyclo[14.7.2.0-3,6˜.0˜19,24˜]pentacosa[8,16,18,24]tetraen]-15′-one 13′,13′-dioxide]
- IC50 [3]: 22 nM

Structure (SMILES): CO[C@@]1(CC(=O)NC(C)(C)C(=O)O)/C=C/C[C@H](C)[C@@H](C)S(=O)(=O)NC(=O)c2ccc3c(c2)N(C[C@@H]2CC[C@H]21)C[C@@]1(CCCc2cc(Cl)ccc21)CO3 [Example 100546, N-(((1S,3′R,6′R,7′S,8′E,11′S,12′R)-6-chloro-7′-methoxy-11′,12′-dimethyl-13′,13′-dioxido-15′-oxo-3,4-dihydro-2H-spiro[naphthalene-1,22′-[20]oxa[13]thia[1,14]diazatetracyclo [14.7.2.0~3,6~.0~19,24~]pentacosa[8,16,18,24]tetraen]-7′-yl)acetyl)-2-methylalanine]
- IC50 [1]: 440 nM

Structure (SMILES): CO[C@]1(CN2CCN3CCN(C(C)=O)C[C@@H]3C2)/C=C/C[C@H](C)[C@@H](C)S(=O)(=O)NC(=O)c2ccc3c(c2)N(C[C@@H]2CC[C@H]21)C[C@@]1(CCCc2cc(Cl)ccc21)CO3 (single isomer, unassigned) [Example 229]
- IC50 [3]: 96 nM

Structure (SMILES): C[C@@H]1[C@@H](C)C/C=C/[C@](O)(C#CCCc2ccccn2)[C@@H]2CC[C@H]2CN2C[C@@]3(CCCc4cc(Cl)ccc43)COc3ccc(cc32)C(=O)NS1(=O)=O [Example 100455, (1S,3′R,6′R,7′R,8′E,11′S,12′R)-6-chloro-7′-hydroxy-11′,12′-dimethyl-7′-(4-(2-pyridinyl)-1-butyn-1-yl)-3,4-dihydro-2H,15′H-spiro[naphthalene-1,22′-[20]oxa[13]thia[1,14]diazatetracyclo [14.7.2.0~3,6~.0~19,24~]pentacosa[8,16,18,24]tetraen]-15′-one 13′,13′-dioxide]
- IC50 [1]: 140 nM

Structure (SMILES): CO[C@@]1(CC(=O)N(C)C2CC2)/C=C/C[C@H](C)[C@@H](C)S(=O)(=O)NC(=O)c2ccc3c(c2)N(C[C@@H]2CC[C@H]21)C[C@@]1(CCCc2cc(Cl)ccc21)CO3 [Example 100374, 2-((1S,3′R,6′R,7′S,8′E,11′S,12′R)-6-chloro-7′-methoxy-11′,12′-dimethyl-13′,13′-dioxido-15′-oxo-3,4-dihydro-2H-spiro[naphthalene-1,22′-[20]oxa[13]thia[1,14]diazatetracyclo [14.7.2.0~3,6~.0~19,24~]pentacosa[8,16,18,24]tetraen]-7′-yl)-N-cyclopropyl-N-methylacetamide]
- IC50 [1]: 433 nM

Structure (SMILES): COCC(COC)N1CCN(C[C@]2(OC)/C=C/C[C@H](C)[C@@H](C)S(=O)(=O)NC(=O)c3ccc4c(c3)N(C[C@@H]3CC[C@H]32)C[C@@]2(CCCc3cc(Cl)ccc32)CO4)CC1 [Example 287, (1S,3′R,6′R,7′S,8′E,11′S,12′R)-6-chloro-7′-methoxy-7′-((4-(2-methoxy-1-(methoxymethyl)ethyl)-1-piperazinyl)methyl)-11′,12′-dimethyl-3,4-dihydro-2H,15′H-spiro[naphthalene-1,22′-[20]oxa[13]thia[1,14]diazatetracyclo [14.7.2.0~3,6~.0~19,24~]pentacosa[8,16,18,24]tetraen]-15′-one 13′,13′-dioxide]
- IC50 [2]: 50 nM

- IC50 [1]: 308 nM
Structure (SMILES): CO[C@]1(c2cccc(F)n2)/C=C/C[C@H](C)[C@@H](C)S(=O)(=O)NC(=O)c2ccc3c(c2)N(C[C@@H]2CC[C@H]21)C[C@@]1(CCCc2cc(Cl)ccc21)CO3 [Example 100340, (1S,3′R,6′R,7′R,8′E,11′S,12′R)-6-chloro-7′-(6-fluoro-2-pyridinyl)-7′-methoxy-11′,12′-dimethyl-3,4-dihydro-2H,15′H-spiro[naphthalene-1,22′-[20]oxa[13]thia[1,14]diazatetracyclo [14.7.2.0~3,6~.0~19,24~]pentacosa[8,16,18,24]tetraen]-15′-one 13′,13′-dioxide]

Structure (SMILES): CCO[C@@]1(CN2CCN3CCOC[C@@H]3C2)/C=C/C[C@H](C)[C@@H](CCOC)S(=O)(=O)NC(=O)c2ccc3c(n2)N(C[C@@H]2CC[C@H]21)C[C@@]1(CCCc2cc(Cl)ccc21)CO3 [Example 369, (1S,3′R,6′R,7′S,8′E,11′S,12′R)-6-chloro-7′-ethoxy-7′-((9aS)-hexahydropyrazino[2,1-c][1,4]oxazin-8(1H)-ylmethyl)-12′-(2-methoxyethyl)-11′-methyl-3,4-dihydro-2H,15′H-spiro[naphthalene-1,22′-[20]oxa[13]thia[1,14,25]triazatetracyclo [14.7.2.0~3,6~.0~19,24~]pentacosa[8,16,18,24]tetraen]-15′-one 13′,13′-dioxide]
- IC50 [2]: 71 nM

Structure (SMILES): CO[C@@]1(CN2CCN3CCCC[C@H]3C2)/C=C/C[C@H](C)[C@@H](C)S(=O)(=O)NC(=O)c2ccc3c(c2)N(C[C@@H]2CC[C@H]21)C[C@@]1(CCCc2cc(Cl)ccc21)CO3 [Example 79, (1S,3′R,6′R,7′S,8′E,11′S,12′R)-6-chloro-7′-methoxy-11′,12′-dimethyl-7′-((9aS)-octahydro-2H-pyrido[1,2-a]pyrazin-2-ylmethyl)-3,4-dihydro-2H,15′H-spiro[naphthalene-1,22′-[20]oxa[13]thia[1,14]diazatetracyclo [14.7.2.0~3,6~.0~19,24~]pentacosa[8,16,18,24]tetraen]-15′-one 13′,13′-dioxide]
- IC50 [2]: 245 nM

Structure (SMILES): CCO[C@]1(CN2CCN(C(C)(C)C)CC2)/C=C/C[C@H](C)[C@@H](C)S(=O)(=O)NC(=O)c2ccc3c(c2)N(C[C@@H]2CC[C@H]21)C[C@@]1(CCCc2cc(Cl)ccc21)CO3 [Example 6, (1S,3′R,6′R,7′R,8′E,11′S,12′R)-7′-((4-TERT-BUTYL-1-PIPERAZINYL)METHYL)-6-CHLORO-7′-ETHOXY-11′,12′-DIMETHYL-3,4-DIHYDRO-2H,15′H-SPIRO[NAPHTHALENE-1,22′-[20]OXA[13]THIA[1,14]DIAZATETRACYCLO[14.7.2.0-3,6˜.0˜19,24˜]PENT ACOSA[8,16,18,24]TETRAEN]-15′-ONE 13′,13′-DIOXIDE]
- IC50 [2]: 76 nM

Structure (SMILES): CCO[C@]1(CN2CCN3CCOC[C@@H]3C2)/C=C/C[C@H](C)[C@@H](CCOC)S(=O)(=O)NC(=O)c2ccc3c(c2)N(C[C@@H]2CC[C@H]21)C[C@@]1(CCCc2cc(Cl)ccc21)CO3 [Example 13, (1 S,3′R,6′R,7′R,8′E,11′S,12′R)-6-chloro-7′-ethoxy-7′-((9aS)-hexahydropyrazino[2,1-c][1,4]oxazin-8(1H)-ylmethyl)-12′-(2-methoxyethyl)-11′-methyl-3,4-dihydro-2H,15′H-spiro[naphthalene-1,22′-[20]oxa[13]thia[1,14]diazatetracyclo[14.7.2.0-3,6˜.0˜19,24˜]pentacosa[8,16,18,24]tetraen]-15′-one 13′,13′-dioxide]
- IC50 [2]: 63 nM

Structure (SMILES): CCO[C@]1(CN2CCN(C(C)C)[C@H](C)C2)/C=C/C[C@H](C)[C@@H](CCOC)S(=O)(=O)NC(=O)c2ccc3c(c2)N(C[C@@H]2CC[C@H]21)C[C@@]1(CCCc2cc(Cl)ccc21)CO3 [Example 17, (1S,3′R,6′R,7′R,8′E,11′S,12′R)-6-chloro-7′-ethoxy-12′-(2-methoxyethyl)-11′-methyl-7′-(((3R)-3-methyl-4-(1-methylethyl)-1-piperazinyl)methyl)-3,4-dihydro-2H,15′H-spiro[naphthalene-1,22′-[20]oxa[13]thia[1,14]diazatetracyclo[14.7.2.0-3,6˜.0˜19,24˜]pentacosa[8,16,18,24]tetraen]-15′-one 13′,13′-dioxide]
- IC50 [3]: 34 nM

Structure (SMILES): CO[C@]1(CN2CCN3CCCC[C@H]3C2)/C=C/C[C@H](C)[C@@H](C)S(=O)(=O)NC(=O)c2ccc3c(c2)N(C[C@@H]2CC[C@H]21)C[C@@]1(CCCc2cc(Cl)ccc21)CO3 [Example 78, (1S,3′R,6′R,7′R,8′E,11′S,12′R)-6-chloro-7′-methoxy-11′,12′-dimethyl-7′-((9aS)-octahydro-2H-pyrido[1,2-a]pyrazin-2-ylmethyl)-3,4-dihydro-2H,15′H-spiro[naphthalene-1,22′-[20]oxa[13]thia[1,14]diazateracyclo [14.7.2.0~3,6~.0~19,24~]pentacosa[8,16,18,24]tetraen]-15′-one 13′,13′-dioxide]
- IC50 [2]: 175 nM
